Data reported in patent US8629272B2, “Tricyclic pyrimidine derivatives as wnt antagonists” (Deutsches Krebsforschungszentrum, priority 2009, dated 2014).

Columns and labels:
Type in all cases: cell-based
Wnt signalling pathway = test: Wnt-sensitive reporter gene assay (6xTCF-luciferase, pTOP-FLASH) in Hek293T cells; parameters: Normalized Wnt pathway (inhibitory) activity: scale not given here; details: for IC50: Homo sapiens, HEK-293T, Hek293T, 24 h incubation, 5 nM-100 microM, read-out: IC50 of the Wnt signalling pathway inhibiting activity
Experimental: To screen for small-molecule modulators of the Wnt signalling pathway, a reporter gene based assay describing the modulation of the TCF4 transcription factor was used. More specifically 4000 Hek293T cells were seeded into 384 high density plates. 24 h after seeding a Wnt-sensitive reporter (6×TCF-luciferase (Firefly) (pTOP-FLASH; “Armadillo co activates transcription driven by the product of the drosophila segment polarity gene dTCF”, Cell, 1997, 88(6), pages 789-799) and constitutively expressed control reporter (Renilla luciferase pCMV-RL) were transfected into Hek293T. Wnt signaling was stimulated by cotransfecting mouse Wnt1, mouse Frizzled 8 and human LRP6 according to “Casein kinase 1 gamma couples Wnt receptor activation to cytoplasmic signal transduction”, Nature, 2005, 438 (7069), pages 867-872. 24 h after pathway stimulation compounds were added at a concentration of 10 microM and allowed to incubate for 24 h. For the evaluation of the IC50 the compound was applied in increasing concentrations yielding final concentrations per well of 5 nM-100 microM.

HepG2 = test: Cytotoxicity in HepG2, CellTiterGlo; details: 24 h
Experimental: For examination of cytotoxicity in these cancer cell lines the commercial available CellTiterGlo® Reagent (Promega, USA) was used according to the manufactor. Compounds were applied to Hek293T (denoted (1)) or HepG2 (denoted (2)), cultured in Dulbecco's Modified Eagles Medium, supplemented with 10% fetal calf serum and 1% penicillin/streptomycin. Cells were grown in T75 flasks at 37° C., 5% CO2 and trypsinized when 60-80% confluent by adding 2 ml of 0.25% Trypsin-EDTA solution. Cells were then re-suspended into culture medium yielding approx. 4000 cells (1) or 4500 cells (2), suspended in 30 microl medium. 48 h after cell seeding, compounds were added to yield the desired final concentrations. 24 h after compound addition cytotoxicity was evaluated. For this purpose the media was removed and CellTiterGlo® was added according to the manufactors manual. In this assay the luciferase emission readout is directly correlated with the cellular amount of ATP, low luciferase emission thus is reflecting cytotoxicity of a compound. For the evaluation of the IC50 the compound was applied in increasing concentrations yielding final concentrations per well of 5 nM-100 microM.

[1] = test system: human colon carcinoma cells HCT116; test: Antiproliferative activity against HCT116, cell count
Experimental: For examination of cell line-specific cytotoxicity, compounds were applied to human colorectal cancer cells (HCT116, denoted (1); SW480, denoted (2); Dld-1, denoted (3)) and human fibroblasts (HFF-1, denoted (4); HS-68, denoted (5)), cultured in Mc Coy's (1) and Dulbecco's Modified Eagles Medium (2-5), supplemented with 10% ((1)-(3)) and 20% ((4), (5)) fetal calf serum and 1% penicillin/streptomycin. Cells were grown in T75 flasks at 37° C., 5% CO2 and trypsinized when 60-80% confluent by adding 2 ml of 0.25% Trypsin-EDTA solution. Cells were then re-suspended into culture medium and approx. 750 cells, suspended in 45 microl medium, were plated into each well of a black 384-well plate for fluorescence imaging experiments. 24-36 hr later 5 microl compound solution (100 microM compound dissolved in ultra pure water containing 1% DMSO), were added to achieve a final concentration of 10 microM and were incubated for at least 72 hr. Compound incubation was terminated by (a) fixation and (b) permeabilisation of cells, followed by (c) fluorescence labeling of cell nuclei for cytometric quantification or by immunocytochemistry for microscopic evaluation of cell morphology. The three steps were performed by replacing the solution of the previous step in each well of a 384-well plate by (a) 30 microl PBS (phosphate buffered saline) containing 5% PFA (paraformaldehyde), (b) 30 microl PBS containing 0.2% TritonX-100 and (c) 10 microl PBS containing Hoechst-33342 for cytometry or Hoechst-33342, FITC (fluorescein isothiocyanate-) labeled α-tubulin antibodies and TRITC-(tetramethylrhodamine isothiocyanate-) labeled phalloidin antibodies for microscopy. Solutions were incubated for 15 (a,b) and 30 min (c) in the dark at room temperature. Cells were washed twice between each step with 30 microl PBS. The assay system was miniaturized and adapted to automated workflow using liquid-handling robotics.
Cell line-specific cytotoxicity was quantified by counting the number of Hoechst labeled nuclei per well of a 384-well plate using a plate cytometer. Data obtained with the cytometer was analysed using standard data analysis software.
The examination of the antiproliferative activity against human colon carcinoma cells HCT116 was carried out in analogy to example 35. […] Compounds of the present invention have potent antiproliferative activity against human colon carcinoma cells as shown for HCT116 in Table 6.

| SMILES | Normalized Wnt pathway (inhibitory) activity (Wnt signalling pathway; 0.005 microM) | Normalized Wnt pathway (inhibitory) activity (Wnt signalling pathway; 0.015 microM) | Normalized Wnt pathway (inhibitory) activity (Wnt signalling pathway; 0.137 microM) | Normalized Wnt pathway (inhibitory) activity (Wnt signalling pathway; 0.412 microM) | Normalized Wnt pathway (inhibitory) activity (Wnt signalling pathway; 1.235 microM) | Normalized Wnt pathway (inhibitory) activity (Wnt signalling pathway; 3.704 microM) | Normalized Wnt pathway (inhibitory) activity (Wnt signalling pathway; 11.111 microM) | Normalized Wnt pathway (inhibitory) activity (Wnt signalling pathway; 33.333 microM) | Normalized Wnt pathway (inhibitory) activity (Wnt signalling pathway; 100.000 microM) | IC50 (Wnt signalling pathway) [nM] | Normalized toxicity values (HepG2) (HepG2; 0.005 microM) | Normalized toxicity values (HepG2) (HepG2; 0.015 microM) | Normalized toxicity values (HepG2) (HepG2; 0.046 microM) | Normalized toxicity values (HepG2) (HepG2; 0.137 microM) | Normalized toxicity values (HepG2) (HepG2; 0.412 microM) | Normalized toxicity values (HepG2) (HepG2; 1.235 microM) | Normalized toxicity values (HepG2) (HepG2; 3.704 microM) | Normalized toxicity values (HepG2) (HepG2; 11.111 microM) | Normalized toxicity values (HepG2) (HepG2; 33.333 microM) | Normalized toxicity values (HepG2) (HepG2; 100.000 microM) | also measured |
| --- | --- | --- | --- | --- | --- | --- | --- | --- | --- | --- | --- | --- | --- | --- | --- | --- | --- | --- | --- | --- | --- |
| CCOC(=O)C1=C(C)Nc2c(c3nnc(-c4cccc(OC)c4)n3c(=O)n2-c2ccccc2)C1c1ccccc1 (centres unmarked) [Example 15, 3-(3-Methoxy-phenyl)-7-methyl-4-oxo-5,9-diphenyl-4,5,6,9-tetrahydro-1,2,3a,5,6-pentaaza-cyclopenta[a]naphthalene-8-carboxylic acid ethyl ester] | 0.9417 | 0.9230 | 1.0963 | 0.9830 | 0.8830 | 0.2973 | 0.2350 | 0.4200 | 0.4505 | 1340 | 1.0700 | 1.0465 | 1.1350 | 0.9913 | 1.0390 | 0.9878 | 1.1575 | 1.1825 | 1.2000 | 1.5075 | Normalized cell count (HCT 116) ([1]; 0.005 microM): 1; Normalized cell count (HCT 116) ([1]; 0.015 microM): 1.039; Normalized cell count (HCT 116) ([1]; 0.046 microM): 1.013; Normalized cell count (HCT 116) ([1]; 0.137 microM): 0.9313; Normalized cell count (HCT 116) ([1]; 0.412 microM): 0.9219; Normalized cell count (HCT 116) ([1]; 1.235 microM): 0.865; Normalized cell count (HCT 116) ([1]; 3.704 microM): 0.7235; Normalized cell count (HCT 116) ([1]; 11.111 microM): 0.2716; Normalized cell count (HCT 116) ([1]; 33.333 microM): 0.257; Normalized cell count (HCT 116) ([1]; 100.000 microM): 0.1496 |
| CCOC(=O)C1=C(c2ccccc2)c2c(n(-c3ccccc3)c(=O)n3c(-c4cccc(OC)c4)nnc23)NC1C (centres unmarked) [Example 16, 3-(3-Methoxy-phenyl)-7-methyl-4-oxo-5,9-diphenyl-4,5,6,7-tetrahydro-1,2,3a,5,6-pentaaza-cyclopenta[a]naphthalene-8-carboxylic acid ethyl ester] | 0.9907 | 1.2275 | 1.0070 | 1.0435 | 0.9565 | 0.5445 | 0.3755 | 0.3063 | 0.1990 | 2940 | 1.0275 | 0.9130 | 0.9210 | 0.9210 | 0.9183 | 0.9173 | 1.0303 | 1.1325 | 1.2425 | 1.1200 | Normalized Wnt pathway (inhibitory) activity (Wnt signalling pathway; 0.046 microM): 1.0533; Normalized cell count (HCT 116) ([1]; 0.005 microM): 1; Normalized cell count (HCT 116) ([1]; 0.015 microM): 1.063; Normalized cell count (HCT 116) ([1]; 0.046 microM): 1.163; Normalized cell count (HCT 116) ([1]; 0.137 microM): 1.06; Normalized cell count (HCT 116) ([1]; 0.412 microM): 1.067; Normalized cell count (HCT 116) ([1]; 1.235 microM): 1.125; Normalized cell count (HCT 116) ([1]; 3.704 microM): 1.2; Normalized cell count (HCT 116) ([1]; 11.111 microM): 1.231; Normalized cell count (HCT 116) ([1]; 33.333 microM): 0.52; Normalized cell count (HCT 116) ([1]; 100.000 microM): 0.5801 |
| CCOC(=O)C1=C(c2ccccc2)c2c(n(-c3ccccc3)c(=O)n3c(-c4ccc(OC)cc4)nnc23)NC1C (centres unmarked) [Example 18] | 0.8680 | 1.1175 | 1.0825 | 1.1223 | 0.7260 | 0.8798 | 0.6365 | 0.4930 | 0.2505 | 22100 | 1.1400 | 1.0110 | 1.0350 | 0.9173 | 0.9185 | 0.9953 | 0.9855 | 1.0800 | 1.1125 | 1.1375 | Normalized Wnt pathway (inhibitory) activity (Wnt signalling pathway; 0.046 microM): 1.0168; Normalized cell count (HCT 116) ([1]; 0.005 microM): 1; Normalized cell count (HCT 116) ([1]; 0.015 microM): 0.9377; Normalized cell count (HCT 116) ([1]; 0.046 microM): 0.9859; Normalized cell count (HCT 116) ([1]; 0.137 microM): 0.8603; Normalized cell count (HCT 116) ([1]; 0.412 microM): 0.9166; Normalized cell count (HCT 116) ([1]; 1.235 microM): 0.8399; Normalized cell count (HCT 116) ([1]; 3.704 microM): 0.4154; Normalized cell count (HCT 116) ([1]; 11.111 microM): 0.1595; Normalized cell count (HCT 116) ([1]; 33.333 microM): 0.1555; Normalized cell count (HCT 116) ([1]; 100.000 microM): 0.1892 |
